Laboratory results taken from patent US20060178374A1, “Aminoheteroaryl compounds as protein kinase inhibitors” (AGOURON PHARMACEUTICALS, INC., priority 2004, published 2006).
pKi: −log10 of the molar value.

What follows are compounds tested against HGFR (c-Met) (Homo sapiens, UniProt P08581) (assay: HGFR Continuous-Coupled Spectrophotometric Assay). Conditions: HGFR enzyme 50 nM, Met-2 peptide substrate, 37° C.
Format: biochemical
Method in brief: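 Human HGFR (50 nM final) phosphorylates the Met-2 activation-loop peptide, with ADP formation coupled through PK/LDH to NADH consumption, read as the A340 decrease over 10 min at 37 °C. Buffer was HEPES pH 7.5 with MgCl2, DTT, PEP and ATP.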

Chain of HGFR (c-Met) (P08581 974-1390): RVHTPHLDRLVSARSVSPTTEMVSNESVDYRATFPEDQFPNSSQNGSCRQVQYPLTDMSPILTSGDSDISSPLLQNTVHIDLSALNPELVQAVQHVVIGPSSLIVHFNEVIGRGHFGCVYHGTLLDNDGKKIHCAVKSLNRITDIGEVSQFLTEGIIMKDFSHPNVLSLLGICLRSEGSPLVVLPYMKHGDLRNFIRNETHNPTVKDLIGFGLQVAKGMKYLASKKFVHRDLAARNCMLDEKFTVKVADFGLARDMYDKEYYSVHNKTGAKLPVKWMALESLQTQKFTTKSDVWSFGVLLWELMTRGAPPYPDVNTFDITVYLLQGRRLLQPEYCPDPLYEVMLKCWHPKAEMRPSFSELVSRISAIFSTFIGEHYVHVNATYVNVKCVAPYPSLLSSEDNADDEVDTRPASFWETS

| Structure (SMILES) | pKi |
| --- | --- |
| CC(Oc1cc(-c2ccc(C(=O)N3CCNCC3)cc2)cnc1N)c1c(Cl)ccc(O)c1Cl (centres unmarked) [Example 79, (4-{6-Amino-5-[1-(2,6-dichloro-3-hydroxy-phenyl)-ethoxy]-pyridin-3-yl}-phenyl)-piperazin-1-yl-methanone] | 7.15 |
| COc1ccc(Cl)c(C(C)Oc2cc(-c3ccc(C(=O)N4CCNCC4)cc3)cnc2N)c1Cl (centres unmarked) [Example 80, (4-{6-Amino-5-[1-(2,6-dichloro-3-methoxy-phenyl)-ethoxy]-pyridin-3-yl}-phenyl)-piperazin-1-yl-methanone] | 8.22 |
| CC(Oc1cc(C(N)=O)cnc1N)c1c(Cl)ccc(F)c1Cl (centres unmarked) [Example 81, 6-Amino-5-[1-(2,6-dichloro-3-fluoro-phenyl)-ethoxy]-nicotinamide] | 6.00 |
| Cc1ccc(Cl)c(C(C)Oc2cc(-c3ccc(C(=O)N4CCC(N5CCCC5)CC4)cc3)cnc2N)c1F (centres unmarked) [Example 82, (4-{6-Amino-5-[1-(6-chloro-2-fluoro-3-methyl-phenyl)-ethoxy]-pyridin-3-yl}-phenyl)-(4-pyrrolidin-1-yl-piperidin-1-yl)-methanone] | 6.39 |
| CC(Oc1cc(-c2ccc(C(=O)N3CCC(N4CCCC4)CC3)cc2)cnc1N)c1cccc(C(=O)O)c1 (centres unmarked) [Example 84, 3-(1-{2-Amino-5-[4-(4-pyrrolidin-1-yl-piperidine-1-carbonyl)-phenyl]-pyridin-3-yloxy}-ethyl)-benzoic acid] | 5.26 |
| Cc1cn(-c2cnc(N)c(OC(C)c3c(Cl)ccc(F)c3Cl)c2)cn1 (centres unmarked) [Example 85, 3-[1-(2,6-Dichloro-3-fluoro-phenyl)-ethoxy]-5-(4-methyl-imidazol-1-yl)-pyridin-2-ylamine] | 6.11 |
| COC(=O)c1cn(-c2cnc(N)c(OC(C)c3c(Cl)ccc(F)c3Cl)c2)cn1 (centres unmarked) [Example 86, 1-{6-Amino-5-[1-(2,6-dichloro-3-fluoro-phenyl)-ethoxy]-pyridin-3-yl}-imidazole-4-carboxylic acid methyl ester] | 5.74 |
| CC(Oc1cc(N2CCCC2=O)cnc1N)c1c(Cl)ccc(F)c1Cl (centres unmarked) [Example 90, N-{6-Amino-5-[1-(2,6-dichloro-3-fluoro-phenyl)-ethoxy]-pyridin-3-yl}-pyrrolidin-2-one] | 6.04 |
| COc1ccc(C(=O)Nc2cnc(N)c(OC(C)c3c(Cl)ccc(F)c3Cl)c2)cc1 (centres unmarked) [Example 91, N-{6-Amino-5-[1-(2,6-dichloro-3-fluoro-phenyl)-ethoxy]-pyridin-3-yl}4-methoxy-benzamide] | 5.88 |
| COc1cc(C(=O)Nc2cnc(N)c(OC(C)c3c(Cl)ccc(F)c3Cl)c2)ccn1 (centres unmarked) [Example 92, N-{6-Amino-5-[1-(2,6-dichloro-3-fluoro-phenyl)-ethoxy]-pyridin-3-yl}-2-methoxy-isonicotinamide] | 5.77 |
| CC(Oc1cc(NC(=O)c2cnccn2)cnc1N)c1c(Cl)ccc(F)c1Cl (centres unmarked) [Example 93, Pyrazine-2-carboxylic acid {6-amino-5-[1-(2,6-dichloro-3-fluoro-phenyl)-ethoxy]-pyridin-3-yl}-amide] | 5.83 |
| CC(Oc1nc(-c2ccccc2NS(C)(=O)=O)cnc1N)c1c(Cl)ccc(F)c1Cl (centres unmarked) [Example 94, N-(2-{5-Amino-6-[1-(2,6-dichloro-3-fluoro-phenyl)-ethoxy]-pyrazin-2-yl}-phenyl)-methanesulfonamide] | 5.42 |
| Cc1cc2cccc(-c3cnc(N)c(OC(C)c4c(Cl)ccc(F)c4Cl)n3)c2[nH]1 (centres unmarked) [Example 95, 3-[1-(2,6-Dichloro-3-fluoro-phenyl)-ethoxy]-5-(2-methyl-1H-indol-7-yl)-pyrazin-2-ylamine] | 5.38 |
| CC(Oc1cc(-c2ccc(C(=O)N3CCC(N4CCCC4)CC3)cc2)cnc1N)c1c(Cl)ccc(Cl)c1F (centres unmarked) [Example 96, (4-{6-Amino-5-[1-(3,6-dichloro-2-fluoro-phenyl)-ethoxy]-pyridin-3-yl}-phenyl)-(4-pyrrolidin-1-yl-piperidin-1-yl)-methanone] | 6.66 |
| CC(Oc1cc(-c2ccc(C(=O)N3C[C@@H](C)N[C@@H](C)C3)cc2)cnc1N)c1c(Cl)ccc(Cl)c1F (some centres unmarked) [Example 97, (4-{6-Amino-5-[1-(3,6-dichloro-2-fluoro-phenyl)-ethoxy]-pyridin-3-yl}-phenyl)-(3,5-dimethyl-piperazin-1-yl)-methanone] | 6.49 |
| CC(Oc1cc(-c2ccc(CC(=O)N3CCN(C)CC3)cc2)cnc1N)c1c(Cl)ccc(F)c1Cl (centres unmarked) [Example 98, 2-(4-{6-Amino-5-[1-(2,6-dichloro-3-fluoro-phenyl)-ethoxy]-pyridin-3-yl}-phenyl)-1-(4-methyl-piperazin-1-yl)-ethanone] | 7.17 |
| CC(Oc1cc(-c2ccc(CC(=O)N3CCC(N)C3)cc2)cnc1N)c1c(Cl)ccc(F)c1Cl (centres unmarked) [Example 99, 2-(4-{6-Amino-5-[1-(2,6-dichloro-3-fluoro-phenyl)-ethoxy]-pyridin-3-yl}-phenyl)-1-(3-amino-pyrrolidin-1-yl)-ethanone] | 7.40 |

| Structure (SMILES) | pKi |
| --- | --- |
| CC(Oc1cc(-c2ccc(CC(=O)N3CCNCC3)cc2)cnc1N)c1c(Cl)ccc(F)c1Cl (centres unmarked) [Example 100, 2-(4-{6-Amino-5-[1-(2,6-dichloro-3-fluoro-phenyl)-ethoxy]-pyridin-3-yl}-phenyl)-1-piperazin-1-yl-ethanone] | 7.43 |
| CC(Oc1cc(-c2ccc(CC(=O)N3CC4C(N)C4C3)cc2)cnc1N)c1c(Cl)ccc(F)c1Cl (centres unmarked) [Example 101, 1-(6-Amino-3-aza-bicyclo[3.1.0]hex-3-yl)-2-(4-{6-amino-5-[1-(2,6-dichloro-3-fluoro-phenyl)-ethoxy]-pyridin-3-yl}-phenyl)-ethanone] | 7.41 |
| CC(Oc1cc(-c2ccc(NC(=O)C3CCNCC3)nc2)cnc1N)c1c(Cl)ccc(F)c1Cl (centres unmarked) [Example 102, Piperidine-4-carboxylic acid {6′-amino-5′-[1-(2,6-dichloro-3-fluoro-phenyl)-ethoxy]-[3,3′]bipyridinyl-6-yl}-amide] | 6.79 |
| CC(Oc1cc(-c2ccc(F)c(C#N)c2)cnc1N)c1c(Cl)ccc(F)c1Cl (centres unmarked) [Example 103, 5-{6-amino-5-[1-(2,6-dichloro-3-fluorophenyl)ethoxy]pyridin-3-yl}-2-fluorobenzonitrile] | 6.47 |
| C[C@@H](Oc1cc(-c2ccc(C(=O)N3CCNCC3)cc2)cnc1N)c1c(Cl)ccc(F)c1Cl [Example 104, 3-[(1R)-1-(2,6-dichloro-3-fluorophenyl)ethoxy]-5-[4-(piperazin-1-ylcarbonyl)phenyl] pyridin-2-amine] | 8.00 |
| CC(Oc1cc(-c2ccc(OCCN3CCCC3)cc2)cnc1N)c1c(Cl)ccc(F)c1Cl (centres unmarked) [Example 105, 3-[1-(2,6-dichloro-3-fluorophenyl)ethoxy]-5-[4-(2-pyrrolidin-1-ylethoxy)phenyl] pyridin-2-amine] | 7.36 |
| COC(=O)c1n[nH]c2cc(-c3cnc(N)c(OC(C)c4c(Cl)ccc(F)c4Cl)c3)ccc12 (centres unmarked) [Example 106, methyl 6-{6-amino-5-[1-(2,6-dichloro-3-fluorophenyl)ethoxy]pyridin-3-yl}-1H-indazole-3-carboxylate] | 7.36 |
| CC(Oc1cc(-c2cnc3[nH]c(=O)oc3c2)cnc1N)c1c(Cl)ccc(F)c1Cl (centres unmarked) [Example 107, 6-{6-amino-5-[1-(2,6-dichloro-3-fluorophenyl)ethoxy]pyridin-3-yl}(1,3]oxazolo[4,5-b]pyridin-2 (3H)-one] | 7.57 |
| COc1cc(-c2cnc(N)c(OC(C)c3c(Cl)ccc(F)c3Cl)c2)ccc1OCCO (centres unmarked) [Example 108, 2-(4-{6-amino-5-[1-(2,6-dichloro-3-fluorophenyl)ethoxy]pyridin-3-yl}-2-methoxyphenoxy)ethanol] | 7.66 |
| Cc1noc(C)c1-c1cnc(N)c(OC(C)c2c(Cl)ccc(F)c2Cl)c1 (centres unmarked) [Example 109, 3-[1-(2,6-dichloro-3-fluoropheny)ethoxy]-5-(3,5-dimethylisoxazol-4-yl)pyridin-2-amine] | 6.07 |
| CC(Oc1cc(C2=CCCC2)cnc1N)c1c(Cl)ccc(F)c1Cl (centres unmarked) [Example 110, 5-cyclopent-1-en-1-yl-3-[1-(2,6-dichloro-3-fluorophenyl)ethoxy]pyridin-2-amine] | 6.60 |
| COc1cc(-c2cnc(N)c(OC(C)c3c(Cl)ccc(F)c3Cl)c2)ccc1OCCN1CCCC1 (centres unmarked) [Example 111, 3-[1-(2,6-dichloro-3-fluorophenyl)ethoxy]-5-[3-methoxy-4-(2-pyrrolidin-1-ylethoxy)phenyl]pyridin-2-amine] | 7.55 |
| CC(Oc1cc(-c2ccc(C(=O)N3CC(N)C3)cc2)cnc1N)c1c(Cl)ccc(F)c1Cl (centres unmarked) [Example 112, 5-{4-[(3-aminoazetidin-1-yl)carbonyl]phenyl}-3-[1-(2,6-dichloro-3-fluorophenyl)ethoxy]pyridin-2-amine] | 7.74 |
| CC(Oc1cc(-c2cncnc2)cnc1N)c1c(Cl)ccc(F)c1Cl (centres unmarked) [Example 113, 3-[1-(2,6-dichloro-3-fluorophenyl)ethoxy]-5-pyrimidin-5-ylpyridin-2-amine] | 6.44 |
| CC(Oc1cc(-c2cnc(OC3CCN(C(=O)OC(C)(C)C)CC3)nc2)cnc1N)c1c(Cl)ccc(F)c1Cl (centres unmarked) [Example 114, tert-butyl 4-[(5-{6-amino-5-[1-(2,6-dichloro-3-fluorophenyl)ethoxy]pyridin-3-yl}pyrimidin-2-yl)oxy]piperidine-1-carboxylate] | 6.32 |
| CC(Oc1cc(-c2cnc(Cl)nc2)cnc1N)c1c(Cl)ccc(F)c1Cl (centres unmarked) [Example 115, 5-(2-chloropyrimidin-5-yl)-3-[1-(2,6-dichloro-3-fluorophenyl)ethoxy]pyridin-2-amine] | 5.82 |

Same assay, conditions: compound at 1 μM

| Structure (SMILES) | inhibition at 1 µM |
| --- | --- |
| CCC(Oc1cc(-c2ccc(C(=O)N3CCC(N4CCCC4)CC3)cc2)cnc1N)c1cc(F)c(F)cc1F (centres unmarked) [Example 83, (4-{6-Amino-5-[1-(2,4,5-trifluoro-phenyl)-propoxy]-pyridin-3-yl}-phenyl)-(4-pyrrolidin-1-yl-piperidin-1-yl)-methanone] | 11% |
| CC(Oc1cc(-c2ccc(C(=O)N3CCC(N4CCCC4)CC3)cc2)cnc1N)c1cccc(C(=O)NCCc2cccc(O)c2)c1 (centres unmarked) [Example 87, 3-(1-{2-Amino-5-[4-(4-pyrrolidin-1-yl-piperidine-1-carbonyl)-phenyl]-pyridin-3-yloxy}-ethyl)-N-[2-(3-hydroxy-phenyl)-ethyl]-benzamide] | 20% |
